Assay results from US11304956B2, “Use of 7-bromo-5-(O-chlorophenyl)-3-propoxy-1,2-dihydro-3H-1,4-benzodiazepin-2-one for inhibition of neuropathic pain and seizures of different etiology” (priority 2016, dated 2022).

Legend:
gastric mucosa = assay: Ulcerogenic effect, acute experiment (single intragastric dose); type: in vivo, rats; conditions: 3 hours; for Average score: 4-score scale; for Multiplicity of damage: number of ulcers per animal
Method: The disadvantage of most analgesics is the fact that they have ulcerogenic effect that interferes with their long-term use. We have studied this side effect of Compound 1 in acute and subchronic experiments. In the first scheme, the compound in the form of an aqueous suspension (Tween-80) was administered in single dose intragastrically to rats, which had previously been deprived of food for 16 hours with free access to water. After 3 hours, the animals were euthanized with a cervical dislocation, then, after dissection of the abdominal cavity, stomachs were ejected and washed in isotonic sodium chloride solution to take out the contents. Damage of stomach was determined visually. In the second scheme, the compound was administered intragastrically for 4 days, after that the extent of the damaging effect on the stomach was determined, as in the previous experiment.
Evaluation of ulcerogenic action was carried out on a 4-score scale:
0 score—no damage; 0.5 score—hyperemia (blood vessels overflow)
1 score—single minor lesions (1-3 point hemorrhages or small ulcers)
2 score—multiple (more than 3) lesions (erosions, pinpoint hemorrhages) or 1 large ulcer
3 score—significant and massive damages (erosions, hemorrhages) of the gastric mucosa with significant size (diameter up to 4 mm)
4 score—gross injuries (massive hemorrhages, erosions, perforations) that cover the entire surface of the gastric mucosa.
The average multiplicity index of damage to the gastric mucosa (the number of ulcers per animal) and the severity of the damage (in scores) were determined.
Compound 1 was administered over a wide dose range—in acute studies—50, 250, 500 and 1000 mg/kg. For the subchronic experiment, the compound was used at a dose of 50 mg/kg.

[1] = test system: carrageenan rat paw edema; assay: Carrageenan rat paw edema; type: in vivo, male white rats
From the text: Given the fact that Compound 1 affects not only the painful, but also the inflammatory phase, we undertook an in-depth study of its anti-inflammatory effect. The most common screening method of anti-inflammatory activity is the model of inflammatory edema of the rat hind paw, induced by the subplantar administration of various phlogogenic agents. Under the conditions of carrageenan administration, a sufficiently pronounced edema reaction is observed, which slowly develops and persists for a long time. The maximum size of edema is observed in 2-4 hours.
The anti-inflammatory properties of the test compounds were studied in the model of carrageenan rat paw edema. Male white rats weighing 150-180 g were used in the experiments. Before the administration of the experimental substances, the volumes of the rats' paws subsequently injected by phlogogen were measured. The test compounds and the reference drug—diclofenac-sodium, were administered intraperitoneally 40 minutes prior the inflammation induction. The control group of the rats received an equivalent amount of physiological solution in the emulsion with Tween-80. Acute aseptic inflammation was induced by a 1% aqueous solution of 0.1 ml)—carrageenan injection under plantar aponeurosis of the hind paw of animals of the experimental and control groups (see Trinus F. P. Nonsteroidal anti-inflammatory drugs/F. P. Trinus, N. A. Mohort, B. M. Klebanov//K., 1975, pp. 204-231., Winter C. A. Carrageenin—induced edema in hind paw of the rat as an assay for antiinflammatory drugs/C. A. Winter, E. A. Risley, G. V. Nuss//Proc. Soc. Exp. Biol. Med.—1962.—Vol. 111.—P. 544-547). The inflammatory reaction significance was evaluated after two and four hours after the phlogogen injection. Registration of edema size was carried out by mechanical measurement of foot volume in dynamics according to Zakharevsky A. S. (see Zaharevskiy A. S. The influence of some indole derivatives on the nervous system. Diss. cand. med. science/Zaharevskiy Aleksandr Stepanovich-Minsk.—1969.—78-80 p.). The edema extent was estimated according to the difference in volume between the swollen paw and the paw before inflammation induction. The anti-inflammatory efficacy of the test compounds was determined as the ability of the test compounds to suppress the inflammatory response in the experimental animals compared to the control animals and expressed as a percentage. The calculation was carried out according to the following formula:
The percentage of inflammation suppression=(ΔVκ−ΔV ? /ΔVκ)·100%,
where: ΔVκ—the average increase in the volume of the swollen paw in the control;
ΔV ? —the average increase in the volume of the swollen paw in animals injected by experimental substances.

[2] = test system: model of neuropathic pain in rats; assay: Model of neuropathic pain (sciatic nerve ligation), threshold of pain sensitivity by dolorimeter; type: in vivo, male Wistar rats; conditions: for Changes in the threshold of pain perception, regarding healthy limb: damaged vs healthy limb before administration (baseline); for Threshold of pain sensitivity, damaged limb / Threshold of pain sensitivity, healthy limb: day 14 after ligation, before administration (baseline), M±m, n=10; for Threshold of pain sensitivity 2 hours after compounds administration: damaged limb
Method: An evaluation of the antinociceptive action of the test compound (1) on a model of neuropathic pain was carried out on 50 male Wistar rats weighing 270-310 g. The model of neuropathic pain was reproduced by ligation of the sciatic nerve at the level of the upper third of the thigh at the level of the popliteal fossa higher than the site of its trifurcation by N. tibialis, N. peroneus and N. suralis (see Mironov A. N. et al. Guidelines for conducting preclinical studies of drugs. Part one.—Moscow 2012. p. 197-219). The development of the pathological process lasted 14 days. The degree of hyperalgesia was determined using a dolorimeter (Dolorimeter Baseline, USA) by determining the threshold of pain sensitivity (TPS)—the minimum pressure on the lower surface of the rat's foot (g/mm^2), which caused pain in the animal (vocalization and/or withdrawal of the foot). Each animal was given 5 attempts; the threshold value was taken with such a pressure force, which caused a positive response in at least one attempt. The threshold of pain sensitivity was compared on intact and damaged limbs on day 14 after ligation (pathology without treatment), as well as on the injured limb after 2 hours (peak of action) after the drugs administration. The test compound and the reference drug (ketorolac) were administered intragastrally (as gavage) once at doses of 0.5 and 3 mg/kg. Sciatic nerve ligation in animals caused the development of neuropathic pain syndrome, which manifested itself in behavioral reactions of the rat and lowering the threshold of pain sensitivity by an average of 44-48% (see Table 1). The analgesic effect of Compound 1 compared with ketorolac under the conditions of their intragastral administration on the model of neuropathic pain in rats (M±m, n=10, where n is the number of animals in the experiments) is shown in Table 1.

[3] = 50 mg/kg single intragastric dose
[4] = 250 mg/kg single intragastric dose
[5] = 500 mg/kg single intragastric dose
[6] = 1000 mg/kg single intragastric dose
[7] = 3.0 mg/kg intraperitoneally 40 min before carrageenan
[8] = 10.0 mg/kg intraperitoneally 40 min before carrageenan

CCCOC1N=C(c2ccccc2Cl)c2cc(Br)ccc2NC1=O (stereo not drawn) [Compound 1, 7-bromo-5-(o-chlorophenyl)-3-propoxy-1,2-dihydro-3H-1,4-benzodiazepin-2-one]
Number of animals with lesions of the gastric mucosa, score 1 (gastric mucosa; [3]): 3 | Number of animals with lesions of the gastric mucosa, score 2 (gastric mucosa; [3]): 0 | Number of animals with lesions of the gastric mucosa, score 3 (gastric mucosa; [3]): 0 | Number of animals with lesions of the gastric mucosa, score 4 (gastric mucosa; [3]): 0 | Average score (gastric mucosa; [3]): 0.2 ± 0.13 | Multiplicity of damage (gastric mucosa; [3]): 0.5 ± 0.34 | Number of animals with lesions of the gastric mucosa, score 1 (gastric mucosa; [4]): 5 | Number of animals with lesions of the gastric mucosa, score 2 (gastric mucosa; [4]): 2 | Number of animals with lesions of the gastric mucosa, score 3 (gastric mucosa; [4]): 0 | Number of animals with lesions of the gastric mucosa, score 4 (gastric mucosa; [4]): 0 | Average score (gastric mucosa; [4]): 0.8 ± 0.25 | Multiplicity of damage (gastric mucosa; [4]): 0.9 ± 0.31 | Number of animals with lesions of the gastric mucosa, score 1 (gastric mucosa; [5]): 7 | Number of animals with lesions of the gastric mucosa, score 2 (gastric mucosa; [5]): 3 | Number of animals with lesions of the gastric mucosa, score 3 (gastric mucosa; [5]): 0 | Number of animals with lesions of the gastric mucosa, score 4 (gastric mucosa; [5]): 0 | Average score (gastric mucosa; [5]): 1.0 ± 0.21 | Multiplicity of damage (gastric mucosa; [5]): 1.2 ± 0.25 | Number of animals with lesions of the gastric mucosa, score 1 (gastric mucosa; [6]): 8 | Number of animals with lesions of the gastric mucosa, score 2 (gastric mucosa; [6]): 3 | Number of animals with lesions of the gastric mucosa, score 3 (gastric mucosa; [6]): 0 | Number of animals with lesions of the gastric mucosa, score 4 (gastric mucosa; [6]): 0 | Average score (gastric mucosa; [6]): 1.3±0.21 | Multiplicity of damage (gastric mucosa; [6]): 2.0 ± 0.37 | Inhibition of edema in 2 hours (%) [1, 7]: 36.7 ± 4.1 % | Inhibition of edema in 4 hours (%) [1, 7]: 25.00 ± 2.7 % | Inhibition of edema in 2 hours (%) [1, 8]: 47.0 ± 4.1 % | Inhibition of edema in 4 hours (%) [1, 8]: 26.70 ± 5.4 % | Changes in the threshold of pain perception, regarding healthy limb ([2]; 0.5 mg/kg group): −48.4 ± 4.6% | Threshold of pain sensitivity, damaged limb ([2]; 0.5 mg/kg group): 223.5 ± 20.1 g/mm^2 | Threshold of pain sensitivity, healthy limb ([2]; 0.5 mg/kg group): 434.3 ± 13.4 g/mm^2 | Threshold of pain sensitivity 2 hours after compounds administration ([2]; 0.5 mg/kg intragastrally once): 269.3 ± 19.4 g/mm^2 | Changes in the threshold of pain perception, regarding healthy limb ([2]; 3 mg/kg group): −44.3 ± 2.9% | Threshold of pain sensitivity, damaged limb ([2]; 3 mg/kg group): 295.7 ± 29.9 g/mm^2 | Threshold of pain sensitivity, healthy limb ([2]; 3 mg/kg group): 523.6 ± 28.1 g/mm^2 | Threshold of pain sensitivity 2 hours after compounds administration ([2]; 3 mg/kg intragastrally once): 532.8 ± 47.1 g/mm^2
